Assay [1] concerns human breast cancer cell line, MDA-MB-453. Briefly: In vivo mammary cancer inhibiting effect (2). Set-up: species or system female Balb/C strain athymic nude mice. The settings on record: oral, gained tumor volume vs control. The procedure:
5,000,000 cells of human breast cancer cell line, MDA-MB-453, were suspended in a gelmatrix solution. The suspension was subcutaneously implanted at the breast in 7-week-old female Balb/C strain athymic nude mice (Friedman R. et al., Proceedings of the National Academy of Sciences of the U.S.A. Vol. 87, pp.6698-6702, 1990). Twelve days after the implantation, the diameters of tumors were determined. For the experiment were used 5 mice per group with similar tumor size. Compound 72 or 109 of the present invention was suspended in a 5% gum arabic solution (physiological saline) and administered orally twice daily in dose of 60 mg/kg or 90 mg/kg body weight for 10 days. On the day when the dosing was ended, the diameters of tumors were measured. Tumor volume was calculated by the following formula: volume of tumor=longest diameter×shortest diameter×shortest diameter×1/2. The growth rate of tumors was obtained as the proportion of the gained tumor volume which was substracted the initial volume from the final volume in the treated animals to the gained tumor volume which was substracted the initial volume from the final volume in the control animals. The body weights of mice administered with compounds of the present invention were measured during the experiment to observe no decrease.

For assay [2], the system named is MDA-MB-453. Briefly: In vitro inhibition of cell proliferation (2). It counts as cell-based. The settings on record: Homo sapiens, 72 h; Breast cancer MDA-MB-453; 3 days; SRB. The procedure:
(§1) 100 μl (containing 2,000 cells) of a cell suspension of human breast cancer cell line MDA-MB-453 was seeded in each well of the 96-well microtiter plates. The cultures were incubated at 37° C. in a 5% carbon dioxide gas incubator. On the next day, 100 μl of the 2-fold serial dilution of each compound solution was added to each well and the mixtures were cultured for 3 days. The solution containing the compound was removed and the cells were washed with water. To the cells was added a 0.4% (W/V) dye SRB (dissolved in 1% acetic acid) solution to fix and stain the cell protein (Skehan P. et al., Journal of the National Cancer Institute Vol.82, pp.1107-1112, 1990). The dye solution was removed and the fixed and stained cell protein was washed. The protein-bound dye was extracted with 200 μl of 10 mM Tris buffer. The optical density of the extracted dye was determined at the wavelength of 540 nm to estimate the quantity of the cells in terms of the protein quantity. Designating the protein quantity in the control to which no compound solution was added as 100%, the proportion of the residual protein quantity in each treated group was calculated, and IC50, which was concentration of the compound required to inhibit the residual protein quantity to 50% the quantity of the control, was calculated.

Assay [3] has as its target T1, HER2 (Homo sapiens, UniProt P04626). Briefly: Inhibition of phosphorylation of receptor tyrosine in human breast cancer cells (2), MCF-7, heregulin-stimulated. Also noted: Human breast cancer cell line MCF-7 was used; endogenous in cells; host or cells: MCF-7. It counts as cell-based. The settings on record: heregulin control = 100%, read-out: Phosphorylation of receptor tyrosine residue (%); for activity at 0.4 µM: MCF7, 0.4 μM; for activity at 1.6 µM: MCF7, 1.6 μM; for activity at 6.3 µM: MCF7, 6.3 μM; for activity at 25 µM: MCF7, 25 μM. The procedure: Human breast cancer cell line MCF-7 was used. 1,000 μl of the cell suspension (250,000 cells) was seeded in each well of the 24-well plates. The culture were incubated at 37° C. in a 5% carbon dioxide gas incubator. On the next day, 100 μl of the 10-fold serial dilution of each compound solution was added to each well and, 2 hours later, 0.5 μg/ml of heregulin was added to it. After 5 minutes the extract solution was added to it to terminate the reaction, and the protein fraction was extracted. The protein was fractionated by the protein electrophoresis. The protein in the electrophoretic gel was transferred to a nylon filter. The filter was allowed to react with the phosphorylated tyrosine-specific antibody. The reaction product was fluorescence-labeled to expose a photofilm. The intensity of the exposure on the photofilm was quantitated by an image-analyzing apparatus. The proportion of the phosphorylation of HER2 tyrosine in the cells added with a compound solution of each concentration was calculated designating the phosphorylation of HER2 tyrosine in the heregulin-added cells as 100%.
Target sequence in this assay (P04626 23-1255): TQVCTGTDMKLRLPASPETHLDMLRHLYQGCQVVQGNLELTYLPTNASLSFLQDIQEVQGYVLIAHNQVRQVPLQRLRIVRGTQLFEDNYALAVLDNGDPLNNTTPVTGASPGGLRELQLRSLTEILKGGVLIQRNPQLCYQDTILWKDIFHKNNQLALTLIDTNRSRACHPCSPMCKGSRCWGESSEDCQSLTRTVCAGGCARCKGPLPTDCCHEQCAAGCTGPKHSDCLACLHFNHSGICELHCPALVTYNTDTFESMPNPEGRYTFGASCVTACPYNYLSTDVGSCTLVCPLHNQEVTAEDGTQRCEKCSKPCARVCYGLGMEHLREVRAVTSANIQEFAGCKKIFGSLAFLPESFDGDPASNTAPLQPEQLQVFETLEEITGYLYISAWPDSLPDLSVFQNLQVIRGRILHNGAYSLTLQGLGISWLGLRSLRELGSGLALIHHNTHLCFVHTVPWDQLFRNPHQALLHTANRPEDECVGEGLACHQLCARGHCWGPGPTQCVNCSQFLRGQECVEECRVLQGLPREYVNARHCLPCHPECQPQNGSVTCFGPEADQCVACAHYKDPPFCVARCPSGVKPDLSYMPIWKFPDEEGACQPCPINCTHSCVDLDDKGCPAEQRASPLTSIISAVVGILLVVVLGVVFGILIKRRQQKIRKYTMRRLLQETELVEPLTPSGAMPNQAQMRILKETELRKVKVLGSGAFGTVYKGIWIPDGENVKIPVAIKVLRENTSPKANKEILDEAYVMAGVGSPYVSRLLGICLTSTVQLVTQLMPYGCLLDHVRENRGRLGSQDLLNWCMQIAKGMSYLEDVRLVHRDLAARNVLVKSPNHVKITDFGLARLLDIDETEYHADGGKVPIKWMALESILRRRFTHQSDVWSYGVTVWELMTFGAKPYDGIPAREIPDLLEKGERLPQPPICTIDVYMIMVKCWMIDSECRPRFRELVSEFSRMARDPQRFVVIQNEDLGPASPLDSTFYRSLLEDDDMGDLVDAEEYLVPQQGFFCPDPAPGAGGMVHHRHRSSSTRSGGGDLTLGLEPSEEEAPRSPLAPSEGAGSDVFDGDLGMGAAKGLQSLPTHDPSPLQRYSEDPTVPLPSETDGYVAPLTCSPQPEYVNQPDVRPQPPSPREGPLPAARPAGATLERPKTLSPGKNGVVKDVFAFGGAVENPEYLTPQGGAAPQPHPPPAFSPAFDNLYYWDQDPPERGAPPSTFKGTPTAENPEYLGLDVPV

The test system of assay [4] is human prostatic cancer cell line, LNCaP. Briefly: In vivo inhibition of prostate cancer (1). Also noted: species or system male Balb/C-strain athymic nude mice. The conditions noted are these: for Tumor growth rate (%): oral, gained tumor volume vs control; for Inhibition of implanted tumor growth: LNCaP, athymic nude mice. As for the experimental part:
5,000,000 cells of human prostatic cancer cell line, LNCaP, were suspended in a gelmatrix solution and implanted subcutaneously at the breast in 8-week old male Balb/C-strain athymic nude mice (Friedman R. et al., Proceedings of the National Academy of Sciences of the U.S.A. Vol. 87, pp.6698-6702, 1990). 42 days (in the case of compound 72) or 57 days (in the case of compound 109) after the implantation, the diameters of tumors were measured. Five mice per group with similar tumor size were used for the experiment. Compounds 72 or 109 of the present invention was suspended in a 5% gum arabic solution (physiological saline) and administered orally twice daily in a dose of 60 mg/kg and 90 mg/kg body weight for 10 days. After the completion of the dosing, the diameters of tumor were measured. The tumor volume was calculated by the following formula: volume of tumor=longest diameter×shortest diameter×shortest diameter×1/2. The growth rate of tumors was obtained as the proportion of the gained tumor volume which was subtracted the initial volume from the final volume in the treated animals to the gained tumor volume which was subtracted the initial volume from the final volume in the control animals. The body weights of mice administered with compounds of the present invention were measured during the experiment to observe no decrease.

Assay [5] deals with LNCaP. Briefly: Selective in vitro inhibition of breast cancer and prostate cancer cell growth. It counts as cell-based. The settings on record: Homo sapiens, 72 h; Prostate cancer LNCaP; 3 days; SRB; read-out: IC50, inhibition of cell proliferation. As for the experimental part:
(§2) 100 μl (containing 2,000 cells) of a cell suspension of various human cancer cell lines shown in [Table 7] was seeded in each well of the 96-well microtiter plates. The cells were incubated at 37° C. in a 5% carbon dioxide gas incubator. Next day, 100 μl of a 2 fold serial dilution of a compound solution was added to each well. The cultures were incubated for 3 days. The solution containing the compound was removed and the cells were washed with water. To the cells was added a 0.4% (V/W) dye SRB (dissolved in 1% acetic acid) solution to fix and stain the cell protein. The dye solution was removed and the fixed and stained cell protein was washed. The protein-bound dye was extracted with 200 μl of 10 mM Tris buffer. The optical density of the extracted dye was determined at the wavelength of 540 nm to estimate the quantity of the cells in terms of the protein quantity. Designating the protein quantity in the control to which no compound solution was added as 100%, the proportion of the residual protein quantity in each treated group was calculated, and IC50, which was the concentration of the compound required to inhibit the residual protein quantity to 50% the quantity of the control, was calculated.

Assay [6] relates to MRC5. Described as above. The format is cell-based. The conditions noted are these: Homo sapiens, 72 h; Normal MRC5; 3 days; SRB; read-out: IC50, inhibition of cell proliferation. The procedure:
as §2

The subject of assay [7] is MCF-7. The description is as above. The format is cell-based. The conditions noted are these: Homo sapiens, MCF7, 72 h; Breast cancer MCF-7; 3 days; SRB; read-out: IC50, inhibition of cell proliferation. As for the experimental part:
as §2

The test system of assay [8] is PC3. The description is as above. It counts as cell-based. The settings on record: Homo sapiens, PC-3, 72 h; Prostate cancer PC3; 3 days; SRB; read-out: IC50, inhibition of cell proliferation. The procedure:
as §2

Assay [9] relates to MDA-MB-453. The description is as above. The conditions noted are these: Homo sapiens, 72 h; Breast cancer MDA-MB-453; 3 days; SRB; read-out: IC50, inhibition of cell proliferation. The format is cell-based. The procedure:
as §2

In assay [10] the test system is MDA-MB-453. Briefly: In vitro inhibition of cell proliferation (1). The format is cell-based. The settings on record: Homo sapiens, 72 h; Breast cancer MDA-MB-453; 3 days; SRB. The procedure: as §1
Assay [11] concerns the target T1, HER2. Briefly: Inhibition of the activity of human growth factor receptor (HER2) tyrosine kinase. The settings on record: HER2 receptor type tyrosine kinase; ELISA with HER3 substrate; read-out: Concentration of inhibiting HER2 (IC50). The format is biochemical. Set-up: the tyrosine kinase domain of the human HER2 gene was cloned; made in house; host or cells: insect cell line SF-21 (recombinant insect virus vector). The text has this: As enzyme standard, the tyrosine kinase domain of the human HER2 gene was cloned to prepare the recombinant gene of insect virus vector, with which the insect cell line SF-21 was infected to produce an enzyme protein (Guy P. M. et al., Journal of Biological Chemistry Vol. 267, pp.13851-13856, 1992). As substrate, the phosphorylated tyrosine domain of the HER3 protein was cloned to prepare the recombinant gene of plasmid vector with which Escherichia Coli strain JM109 was infected to give an enzyme protein (Sierke S. L. et al., Biochemistry Vol. 32, pp.10102-10108, 1993). The enzymatic reaction was performed by the enzyme-linked immunological method which consisted of fixing the substrate protein in wells of a 96-well microtiter plate, adding the enzyme into the wells and quantitating phosphorylated tyrosine, which was the reaction product, by use of the anti-phosphorylated tyrosine antibody (Cleaveland J. S. et al., Analytical Biochemistry Vol. 190, pp249-253, 1990).
On the technique in general: An ELISA detects its analyte on a solid surface through an enzyme-linked reagent.
Target sequence in this assay (P04626 720-987 limits assumed): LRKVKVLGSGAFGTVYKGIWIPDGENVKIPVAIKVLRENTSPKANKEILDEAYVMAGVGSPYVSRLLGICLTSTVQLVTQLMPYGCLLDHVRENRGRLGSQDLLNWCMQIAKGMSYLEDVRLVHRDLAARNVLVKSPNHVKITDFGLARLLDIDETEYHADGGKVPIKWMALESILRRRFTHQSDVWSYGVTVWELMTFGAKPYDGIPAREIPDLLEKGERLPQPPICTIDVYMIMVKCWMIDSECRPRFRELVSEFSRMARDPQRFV

Assay [12] has as its system human squamous cell carcinoma MH-85. The settings on record: Cancer Research, Vol.51, p.4430, 1991; cited from earlier work.
Assay [13] relates to T-47D. Briefly: Selective in vitro inhibition of breast cancer and prostate cancer cell growth. The format is cell-based. The settings on record: Homo sapiens, T47D, 72 h; Breast cancer T-47D; 3 days; SRB; read-out: IC50, inhibition of cell proliferation. The procedure: as §2
Assay [14] deals with human epidermal carcinoma cell line A431. The settings on record: Journal of Antibiotics, Vol.39, p.170, 1986; cited from earlier work.
[15] abbreviates: 120 mg/kg/day, 60 mg/kg twice daily for 10 days.
[16] abbreviates: 180 mg/kg/day, 90 mg/kg twice daily for 10 days.

Results on seven compounds are retold here after US6211215A, “Heterocyclic compounds, their production and use” (Takeda Chemical Industries, Ltd., priority 1996, dated 2001).

Turning to `Cc1ccc(-c2nc(COc3ccc(CCCn4ccnc4)cc3)co2)s1` [Compound 109, 4-[4-[3-(1-imidazolyl)propyl]phenoxymethyl]-2-(5-methyl-2-thienyl)oxazole], the entries for the “Tumor growth rate (%)” value in [1] (setting [15]) and in assay [4] (setting [15]) were 35% and 28%, respectively. Further, the IC50 was 2.5 µM in assay [2]; 11 µM in [5]; > 25 µM in assay [6]; 0.19 µM in assay [7]; 16 µM in assay [8]; 2.5 µM in assay [9]. Further, the activity at 0.4 µM in assay [3] worked out at 92%. The activity at 1.6 µM in [3] turned out to be 89%. For the same compound, the activity at 6.3 µM in assay [3] was found to be 43%. Also, in [3], the activity at 25 µM turned out to be 31%. Moreover, the “Inhibition of implanted tumor growth” value in assay [4] is reported as “inhibiting tumor growth of hormone dependent prostate cancer LNCaP”.

For `C(=C\c1nc(COc2ccc(CCCCn3cncn3)cc2)co1)/c1ccccc1` [Compound 2, 1-[4-[4-[2-[(E)-2-phenylethenyl]-4-oxazolylmethoxy]phenyl]butyl]-1,2,4-triazole], the figures for the IC50 in [10] and in assay [11] were 0.66 µM and 67 µM, respectively.

As to `COc1cc2ncnc(Nc3cccc(Cl)c3)c2cc1OC` [tyrphostin], the “Antitumor activity in vivo” value in assay [12] is given as “has antitumor activity”.

For `c1csc(-c2nc(COc3ccc(CCCn4ccnc4)cc3)co2)c1` [Compound 72, 4-[4-[3-(1-imidazolyl)propyl]phenoxymethyl]-2-(2-thienyl)oxazole], the “Tumor growth rate (%)” value in [1] (setting [15]) is recorded as 84%; in assay [1] (setting [16]) it was 71%; in assay [4] (setting [15]), 91%; in assay [4] (setting [16]), 57%. Moreover, the IC50 in assay [2] is 1.7 µM; in assay [5], 7.9 µM; in assay [6], > 25 µM; in assay [7] it was 0.62 µM; in assay [8], 9.5 µM; in [13], 3.5 µM. Besides, the IC50 in [9] amounted to 1.7 µM. For the same compound, the activity at 0.4 µM in [3] was 96%. Also, the activity at 1.6 µM in [3] stood at 48%. Also, the activity at 6.3 µM in assay [3] is 19%. The activity at 25 µM in [3] was 7%. Besides, the “Inhibition of implanted tumor growth” value in assay [4] was “inhibiting tumor growth of hormone dependent prostate cancer LNCaP”.

On to `O=CN/C=C/c1cc(O)ccc1O` [erbstatin], for which the “Inhibition of proliferation” value in [14] is on record as “inhibits proliferation of human epidermal carcinoma cell line A431”.

Regarding `c1csc(-c2nc(COc3ccc(CCCn4ccnc4)cc3)cs2)c1` [Compound 94, 4-[4-[3-(1-imidazolyl)propyl]phenoxymethyl]-2-(2-thienyl)thiazole], the IC50 in [2] is 4.8 µM; in assay [5], 5.6 µM; in [6], > 25 µM; in assay [7] it was 1.1 µM; in assay [8] it was 15 µM; in assay [9] it was 4.8 µM. Moreover, the activity at 0.4 µM in assay [3] was found to be 93%. Also, the activity at 1.6 µM in assay [3] was 86%. For the same compound, the activity at 6.3 µM in [3] amounted to 45%. Further, the activity at 25 µM in assay [3] came out at 25%.

Turning to `c1csc(-c2nc3cc(COc4ccc(CCCCn5ccnc5)cc4)ccc3o2)c1` [Compound 80, 5-[4-[4-(1-imidazolyl)butyl]phenoxymethyl]-2-(2-thienyl)benzoxazole], the IC50 in assay [2] was 0.09 µM; in [5], 1.6 µM; in assay [6], > 25 µM; in assay [7], 0.01 µM; in assay [8], 6.5 µM; in assay [9], 0.09 µM. The activity at 0.4 µM in assay [3] turned out to be 46%. For the same compound, in assay [3], the activity at 1.6 µM amounted to 40%. Also, the activity at 6.3 µM in [3] turned out to be 34%.
